Data as given in patent US20090325984A1, “USE OF 1,7-DIMETHYLXANTHINE FOR THE MANUFACTURE OF A NON-ANXIOGENIC PSYCHOANALEPTIC DRUG FOR THE TREATMENT OF A NEUROPSYCHIATRIC DISORDER” (Pierre Fabre Medicament, priority 2006, published 2009).
“Also recorded” adds a separate entry of the source.

Key:
Format in all cases: in vivo
male CD1 albino mice [1] = assay: Locomotor activity (horizontal and vertical) in the mouse
Experimental: The animals were placed in groups of 20 in plexiglass cages (38×24×18 cm) and kept in a ventilated animal facility where the temperature was maintained at 21±1° C. The animals had free access to water and food; artificial lighting established a day/night cycle (daytime between 7:00 a.m. and 7:00 p.m.). Experiments were conducted between 11:00 a.m. and 6:00 p.m. […] The solutions were stabilized with Cremophor EL (Sigma) to a final concentration of 15%. The solutions were injected by intraperitoneal route in a dose of 10 ml/kg. Before each test, the animals were isolated for 20 minutes in plexiglass cages (27×13×13 cm); they had food at their disposal. […] Photoelectric sensors in the chambers measured the horizontal and vertical activity of the animals, expressed as the number of interrupted beams, and the data was analyzed using a software application (Omnitech Electronics Inc., Columbus, Ohio, USA). […] Animals were placed in the activity monitoring system immediately after receiving the injection. The chambers were cleaned after each animal's test.

male CD1 albino mice [2] = assay: Hole-board test in the mouse; conditions: 50 mg/kg; for number of edges explored / number of holes explored: 20 minutes after injection, vs solvent
Experimental: The hole-board test investigates curiosity and is negatively affected by anxiety. This apparatus, placed 60 cm above the floor, consists of a square platform of opaque plastic, 40 cm on each side, with 16 evenly distributed holes of such size that an animal is able to pass its head through. The animals were injected and then isolated for 20 minutes before being placed at the center of the platform. The number of holes and edges explored by each animal was counted. The apparatus was cleaned after each animal's test.

male CD1 albino mice [3] = assay: Black-white box test in the mouse; conditions: 50 mg/kg; for amount of time spent in the lighted compartment: 20 minutes after injection, vs controls
Experimental: The black-white box test measures the state of anxiety of animals as a function of their aversion to light. The apparatus consists of two compartments of the same size (length=21 cm, width=15 cm, height=25 cm), one painted white and illuminated by a 40 W bulb, the other painted black and closed with a cover. The animal can pass from one compartment to the other via to an opening 5 cm-square in the lower portion of the partition. After the injection, the animals were isolated for 20 minutes and then placed in the black compartment with their head facing the corner opposite the opening. Using a mirror placed above the apparatus, the time before first entering the lit compartment, the number of times entering and the time spent in the lighted compartment were measured. The two compartments were cleaned between each test.

male CD1 albino mice [4] = assay: Raised cross-shaped labyrinth test in the mouse; conditions: for anxiogenic effect in the raised cross-shaped labyrinth test / number of times the mice entered the open arm: 50 mg/kg; for number of times the mice entered the open arm: five minutes recording
From the text: The raised cross-shaped labyrinth test measures the animals' anxiety level based on its spontaneous aversion to voids (80). The apparatus is composed of four arms, placed at right angles, each measuring 18×6 cm; it rests on a pedestal 60 cm above the floor. Two of the arms have 6 cm-high side walls and are laid out end to end; these are the “closed” arms. […] After receiving their injections, the animals were isolated for twenty minutes and then placed in the labyrinth, at the center of the cross, with their head in the direction of a closed arm. Movements by the animals were recorded for five minutes by a video camera connected to image analysis software (Videotrack). The labyrinth was cleaned after each animal's test.

male Wistar rats = assay: Vogel conflict test in the rat; conditions: intraperitoneal, 1, 10, 25 and 50 mg/kg
Experimental: Experiments were performed using male Wistar rats weighing 180 g to 280 g according to the procedure described by Vogel et al. (Psychopharmacologia, 1971, 21: 1-7). Animals were deprived of water for 48 hours and then individually placed in a plexiglass chamber (15×32×34 cm) whose floor consisted of conducting metal bars spaced 1 cm apart. In the center of one of the chamber's walls was placed a metal cup connected to an electric shock generator (1.7 mA; 1 s).
During the test, the animal, which is left free to explore the apparatus, receives an electric shock each time it consumes water from the cup. A researcher blind to the treatment received by the animal counts the number of times that the animal consumes water and is punished by the electric shock. An increase in the number of times an animal consumes water indicates an anxiolytic effect, whereas a reduction in this number indicates an anxiogenic effect.
(§1) Paraxanthine was dissolved under heating in sodium benzoate (30 mg/ml) with the addition of Cremophor EL to a final concentration of 15% and administered by intraperitoneal route at doses of 1 mg/kg, 10 mg/kg, 25 mg/kg and 50 mg/kg. Clobazam was used as the reference anxiolytic; it was dispersed in a 0.2% hydroxypropylmethylcellulose solution and administered by intraperitoneal route at a dose of 32 mg/kg.

NMRI mice = assay: Four-plate test in the mouse; conditions: intraperitoneal, 25 mg/kg (P<0.05)
Experimental: Experiments were performed using NMRI mice weighing 20 g to 30 g according to the method described by Aron et al. (Neuropharmacology, 1971, 10:459-469). Animals were placed in a plastic chamber whose floor consisted of four metal plates independently connected to an electric shock generator (2.5 mA; 1.5 s). The animal is initially left free to explore the apparatus for 15 seconds, after which it receives an electric shock each time it crosses between two metal plates. An increase in the number of crossings indicates anxiolytic activity, whereas a reduction in this number indicates anxiogenic activity.
as §1, with “16” for “32”

Cn1c(=O)c2c(ncn2C)n(C)c1=O [caffeine, 1,3,7-Trimethylxanthine]
duration of stimulation of horizontal locomotor activity (male CD1 albino mice [1]; intraperitoneal, 10 mg/kg): at least one hour
vertical locomotor activity (male CD1 albino mice [1]; intraperitoneal, 10 mg/kg, significant only 30 minutes after the injection (P<0.05)): stimulated the animals' vertical locomotor activity
horizontal locomotor activity (male CD1 albino mice [1]; intraperitoneal, 10 mg/kg, within the first 10 minutes (P<0.05)): stimulated animals' horizontal locomotor activity
duration of stimulation of horizontal locomotor activity (male CD1 albino mice [1]; intraperitoneal, 25 mg/kg): 40 min
horizontal locomotor activity (male CD1 albino mice [1]; intraperitoneal, 25 mg/kg, 10 minutes after the injection (P<0.05)): stimulated this activity
duration of decrease of vertical activity (male CD1 albino mice [1]; intraperitoneal, 100 mg/kg): 40 min
vertical locomotor activity (male CD1 albino mice [1]; intraperitoneal, 100 mg/kg, from the first measurement period (P<0.05)): vertical activity decreased relative to that of the controls
horizontal activity for one hour (cumulative) (male CD1 albino mice [1]; intraperitoneal, 60 minutes): stimulated by caffeine only at doses of 10 mg/kg (P<0.01) and 25 mg/kg (P<0.05)
horizontal locomotor activity (male CD1 albino mice [1]; intraperitoneal, doses lower than 10 mg/kg or higher than 25 mg/kg, vs solvent alone): no significant difference
range of doses with stimulating effect on locomotor activity (male CD1 albino mice [1]; same conditions): 10 to 25 mg/kg
stimulating effect on locomotor activity compared with paraxanthine (male CD1 albino mice [1]; same conditions): the effect is less
anxiogenic effect in the hole-board test (male CD1 albino mice [2]): has an anxiogenic effect; also recorded: had an anxiogenic effect
number of edges explored (male CD1 albino mice [2]): significantly decreased
number of holes explored (male CD1 albino mice [2]): significantly decreased
anxiolytic effect in the black-white box test (male CD1 albino mice [3]): does not; also recorded: did not have an anxiolytic effect
amount of time spent in the lighted compartment (male CD1 albino mice [3]): did not change
anxiogenic effect in the raised cross-shaped labyrinth test (male CD1 albino mice [4]): is anxiogenic; also recorded: has an anxiogenic effect
number of times the mice entered the open arm (male CD1 albino mice [4]): reduced the number of times the mice entered the open arm

Cn1c(=O)[nH]c2ncn(C)c2c1=O [paraxanthine, 1,7-dimethyl-3,7-dihydro-1H-purine-2,6-dione]
stimulating effect on locomotor activity (male CD1 albino mice [1]; doses from 1 mg/kg up to 50 mg/kg): dose-dependant stimulating effect
duration of stimulation of horizontal locomotor activity (male CD1 albino mice [1]; intraperitoneal, 1 mg/kg): 30 min
horizontal locomotor activity (male CD1 albino mice [1]; intraperitoneal, 1 mg/kg, from the first 10-minute measurement period, vs solvent (P<0.05 or P<0.01)): stimulated horizontal locomotor activity
vertical locomotor activity (male CD1 albino mice [1]; intraperitoneal, comparable to horizontal activity, effect of 1 mg/kg more difficult to demonstrate): stimulated the animals' vertical locomotor activity
duration of stimulation of horizontal locomotor activity (male CD1 albino mice [1]; intraperitoneal, doses higher than 1 mg/kg): at least one hour
horizontal locomotor activity (male CD1 albino mice [1]; intraperitoneal, doses higher than 1 mg/kg (P<0.01 or P<0.001)): the effect was more marked
anxiogenic effect in the hole-board test (male CD1 albino mice [2]): not the case; also recorded: did not
number of edges explored (male CD1 albino mice [2]): did not have any effect
number of holes explored (male CD1 albino mice [2]): did not have any effect
anxiolytic effect in the black-white box test (male CD1 albino mice [3]): has an anxiolytic effect; also recorded: exhibited an anxiolytic effect
amount of time spent in the lighted compartment (male CD1 albino mice [3]): increased the amount of time spent in the lighted compartment
number of times entering the lighted compartment (male CD1 albino mice [3]; vs animals treated with caffeine (P<0.05)): went into the lighted compartment more often than animals treated with caffeine
anxiogenic effect in the raised cross-shaped labyrinth test (male CD1 albino mice [4]): not the case
anxiolytic effect in the raised cross-shaped labyrinth test (male CD1 albino mice [4]; 50 mg/kg (high doses)): has an anxiolytic effect
number of times the mice entered the open arm (male CD1 albino mice [4]): had no effect
time spent by the animals in the open arm (male CD1 albino mice [4]; increasing doses from 1 mg/kg to 50 mg/kg (P<0.05 at 50 mg/kg)): increased until a significant effect was exhibited at a dose of 50 mg/kg
anxiogenic effect in the Vogel conflict test (male Wistar rats): did not have an anxiogenic effect; also recorded: did not demonstrate an anxiogenic effect
number of times animals consumed water (male Wistar rats): did not decrease
anxiolytic activity (number of crossings between two plates) (NMRI mice): has anxiolytic activity; also recorded: exhibited anxiolytic activity
